Results on three substances are retold here after patent US20030166542A1, “Systemic immune response induced by mucosal administration of lipid-tailed polypeptides without adjuvant” (INSTITUT PASTEUR, priority 1999, published 2003).

Assay [1] deals with T lymphocytes from ganglia sub-mandibulaires. It is filed as cell-based, BALB/c mice.
The subject of assay [2] is spleen and inguinal lymph node cells. The assay can be described thus: Lymphocyte proliferative assay ((3H)TdR) on spleen and inguinal lymph node cells of immunized mice. The assay is classed as cell-based. Here is the method: FIG. 3: Systemic cellular immune responses are electited by presentation of lipid-tailed polypeptides to the nasal and sub-lingual mucosal surfaces. Groups of five C3H/HeJ mice were administrated with LSA3-NRII lipid-tailed (black bars) or non-lipdated polypeptide (hatched bars) either a) intranasally, b) sub-lingually, or c) subcutaneously. Two weeks after two administrations, cell suspensions from individual spleens were assayed for in vitro proliferation to the recall polypeptide. Results are expressed as Δ cpm. The background cpm, in unstimulated cells were 1548 fro intranasal, 2356 for sub-lingual and 1965 for subcutaneous routs, Bars represent the mean Δ cpm±SD in each group. The data were similar and are representative of three separate experiments.

Assay [3] has as its system P. falciparum sporozoites, liver schizonts, infected RBC. The assay can be described thus: Immunofluorescent Ab assay (IFAT) of sera from immunized mice against native parasite. It is filed as in vivo. The procedure:
FIG. 2: Mucosal immunization elicits parasite-specific antibody responses. Sera were obtained from C3H/HeJ mice at 2weeks post-immunization by either nasal or sub-lingual route and assayed fro recognition of (a) P. falciparum sporozoites and (B) hepatic schizonts in an IFI assay as described in Material and Methods. The data are representative of three independent experiments.
The reactivity of the sera against native proteins from various stages of the parasite were analyzed by IFAT using either (i) P. faciparum NF54 strain sporozoites (a gift of W. Eling), or (ii) sections from liver biopsies containing day 5 P. falciparum liver schizonts, or (iii) day 6 ½ P. falciparum liver schizonts obtained from a Chimpanzee. IFAT-labeled anti-human IgG, -A, -M (Diagnostic Pasteur France) or anti-mouse (Cappel. Wester Chester. Pa.) diluted {fraction (1/ 200)} were employed as second Abs.

Another assay concerns C3H/HeJ mice. Kind of assay: Isotype analysis of polypeptide-specific serum antibodies (ELISA). The assay is classed as in vivo.

*: point of attachment. Palmitoyl = CCCCCCCCCCCCCCCC(=O)*

In the case of “Concanavaline A [CON A, reference compound]”, the “immune response (CFSE shift of fluorescence)” value in assay [1] (positive control) was “maximum immune response”.

Turning to “Ac-LEESQVNDDIFNSLVKSVQQEQQHNVK(Pam)NH2 (Ac-LEESQVNDDIFNSLVKSVQQEQQHNVK(Palmitoyl)-NH2; SMILES CCCCCCCCCCCCCCCC(=O)NCCCC[C@H](NC(=O)[C@@H](NC(=O)[C@H](CC(N)=O)NC(=O)[C@H](Cc1c[nH]cn1)NC(=O)[C@H](CCC(N)=O)NC(=O)[C@H](CCC(N)=O)NC(=O)[C@H](CCC(=O)O)NC(=O)[C@H](CCC(N)=O)NC(=O)[C@H](CCC(N)=O)NC(=O)[C@@H](NC(=O)[C@H](CO)NC(=O)[C@H](CCCCN)NC(=O)[C@@H](NC(=O)[C@H](CC(C)C)NC(=O)[C@H](CO)NC(=O)[C@H](CC(N)=O)NC(=O)[C@H](Cc1ccccc1)NC(=O)[C@@H](NC(=O)[C@H](CC(=O)O)NC(=O)[C@H](CC(=O)O)NC(=O)[C@H](CC(N)=O)NC(=O)[C@@H](NC(=O)[C@H](CCC(N)=O)NC(=O)[C@H](CO)NC(=O)[C@H](CCC(=O)O)NC(=O)[C@H](CCC(=O)O)NC(=O)[C@H](CC(C)C)NC(C)=O)C(C)C)[C@@H](C)CC)C(C)C)C(C)C)C(C)C)C(N)=O) [LSA3-NRII lipid-tailed polypeptide, palmitoyl lipid-tailed polypeptide derived from P. falciparum LSA-3]”, the “proliferative responses against irrelevant polypeptide (LSA1-J)” value in assay [2] (Ag specificity) is recorded as “lack of responses”. For the same substance, the “maximal delta cpm, inguinal lymph nodes” value in assay [2] (S.L.) was 16189 cpm. Moreover, the “proliferative responses in spleen cells to recall polypeptide” value in assay [2] (S.L. or I.N. application, no mucosal adjuvant, C3H/HeJ) is reported as “strong proliferative responses”. Also, the “phenotype of lymphoproliferative responses (antibody blocking)” value in assay [2] (after mucosal administration, anti-CD4 / anti-CD8 antibodies) was “abrogated by antibodies against CD4 but not by anti- CD8 antibodies”. In addition, the “proliferative responses, mucosally versus subcutaneously immunized animals” value in assay [2] (same dose, P<0.05) is recorded as “at higher levels compared to subcutaneously immunized animals”. Moreover, the “reactivity of induced Abs with infected RBC's by IFAT” value in assay [3] (different steps of intra-erythrocytic maturation) is “did not react”. In addition, the “reactivity of induced Abs with intact parasite by IFAT” value in assay [3] (sporozoite and liver stages, sera of mucosally immunized BALB/c and C3H/HeJ) is “react with the intact parasite”. Besides, the “isotype profile of serum antibody response” value was “preferential IgG2a serum antibody response” with C3H/HeJ mice (mucosal administration (I.N., S.L.)) and “dominant IgG1 isotype response” in the assay on C3H/HeJ mice (subcutaneous route).

In the case of “Nh2-K(NεPam)GRQYIKANSKFIGITERGRILKEPVHGV-COOH [H-K(PAM)TT-pol 476-484]”, in assay [1], the “shift of fluorescence (CFSE)” value is on record as “as intense as that provided by positive CON A control”.
